# Reference: ChEMBL document CHEMBL1799946, “Synthesis and biological evaluation of desmethylveramiline, a micromolar Hedgehog inhibitor” (Bioorg Med Chem Lett, 2011)
# Columns and labels:
# Sonic hedgehog protein = Sonic hedgehog protein (Mus musculus, UniProt Q62226); experiment: Inhibition of SHH pathway in mouse Shh Light2 cells after 40 hrs by Gli-dependent luciferase reporter gene assay; type: functional, cell-based, Shh Light II
# [1] = target: Sonic hedgehog protein (Mus musculus) (UniProt Q62226); experiment: Inhibition of N-terminal SHH activated pathway in mouse C3H10T1/2 cells assessed as SAG-induced cell differentiation at 1 uM by alkaline phosphatase assay; type: cell-based; conditions: C3H 10T1/2
# [2] = target: Sonic hedgehog protein (Mus musculus) (UniProt Q62226); experiment: Inhibition of N-terminal SHH activated pathway in mouse C3H10T1/2 cells assessed as SAG-induced cell differentiation at 10 uM by alkaline phosphatase assay; type: cell-based; conditions: C3H 10T1/2
# [3] = target: Sonic hedgehog protein (Mus musculus) (UniProt Q62226); experiment: Inhibition of SHH pathway in mouse Shh Light2 cells at 0.3 uM after 40 hrs by Gli-dependent luciferase reporter gene assay; type: functional, cell-based; conditions: Shh Light II
# [4] = target: Sonic hedgehog protein (Mus musculus) (UniProt Q62226); experiment: Inhibition of SHH pathway in mouse Shh Light2 cells at 3 uM after 40 hrs by Gli-dependent luciferase reporter gene assay; type: functional, cell-based; conditions: Shh Light II
# [5] = target: Sonic hedgehog protein (Mus musculus) (UniProt Q62226); experiment: Inhibition of SHH pathway in mouse Shh Light2 cells at 10 uM after 40 hrs by Gli-dependent luciferase reporter gene assay; type: functional, cell-based; conditions: Shh Light II
# Sonic hedgehog protein, sequence (Q62226 25-198 limits assumed): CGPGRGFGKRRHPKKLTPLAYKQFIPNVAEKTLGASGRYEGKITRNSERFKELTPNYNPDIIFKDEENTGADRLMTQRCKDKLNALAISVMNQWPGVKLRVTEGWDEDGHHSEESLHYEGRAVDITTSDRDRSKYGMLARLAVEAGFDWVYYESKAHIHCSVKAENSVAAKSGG
Compound,IC50 (Sonic hedgehog protein) [nM],inhibition [1] [%],inhibition [2] [%],inhibition [3] [%],inhibition [4] [%],inhibition [5] [%]
COc1cccc(CN(C(=O)CC(C)(C)C)[C@H]2C[C@@H](C(=O)N3CCNCC3)N(Cc3ccc4c(c3)OCO4)C2)c1,100,78,99,89,97,92
C[C@H]([C@@H]1CCCCN1)[C@H]1CC[C@H]2[C@@H]3CC=C4C[C@@H](O)CC[C@]4(C)[C@H]3CC[C@]12C [DESMETHYLVERAMILINE],1100,13,85,5,47,87
CC1=C2C[C@H]3[C@@H](CC=C4C[C@@H](O)CC[C@@]43C)[C@@H]2CC[C@]12O[C@@H]1C[C@H](C)CN[C@H]1[C@H]2C [CYCLOPAMINE],300,71,105,58,96,98
